This is an account of results in patent US20210315882A1, “METHODS OF TREATING A PATIENT HAVING PARKINSON'S DISEASE” (Sunovion Pharmaceuticals Inc., priority 2019, published 2021).

The test system of this assay is patients with Parkinson's disease and “OFF” episodes. The assay is described as follows: Post hoc analysis of Phase 3 study: motor responses to apomorphine sublingual film compared with levodopa. It is filed as in vivo, human. From the text: Patients described in Table 9 were enrolled in a study. At screening, patients attended morning in-office visits in the “OFF” state and received their usual morning dose of levodopa without adjunctive PD medications and were both self- and investigator-assessed for a FULL “ON” response (levodopa challenge; FIG. 9). An “OFF” state was accomplished by withholding levodopa and any other adjunctive PD medications after midnight the night before each morning in-office visit.

For the molecule `N[C@@H](Cc1ccc(O)c(O)c1)C(=O)O` [levodopa], the “Responder rate (≥30% decrease in MDS-UPDRS III score from predose)” value reads like this: (15 minutes postdose) 18%; (30 minutes postdose) 50%. In addition, the “time of mean peak response across the time points measured” value (MDS-UPDRS III score) stood at 95 min. Moreover, the “magnitude of observed peak response in MDS-UPDRS III score (mean±SE)” value (across the time points measured) is recorded as −27.9±1.20. Further, the “change in MDS-UPDRS III score from predose at 15 minutes postdose (mean±SE)” value (open-label, film at dose giving FULL “ON”, levodopa usual morning dose, n = 109) is listed as −6.0±0.72.
